Values belong to the compound of their own block, whether it stands above or below them.
Assays:
[1] = target: T1, vasopressin (V1) receptor (Rattus norvegicus, UniProt P30560); test: V1 receptor binding assay, rat liver membrane (Experiment F-2); conditions: [3H]-Arg-vasopressin, pH 7.4
T1 construct: Membrane specimens of rat liver (V1); from tissue; host or cells: rat liver membranes
Protocol: (§1) Membrane specimens of rat liver (V1) and rat kidney (V2) were used. 100,000 counts (3.69 nM) of [^3 H]-Arg-vasopressin, 25 μg (1 mg protein/ml) of each membrane specimen and a test medicament (10^-7 to 10^-5 M) were incubated in 250 μl in total of an assay buffer (pH=7.4) containing 10 mM of MgCl2, 2 mM of EGTA and 20 mM of HEPES at 4° C. over day and night. Then, the incubation was washed with 5-ml portions of the buffer 5 times to thereby separate the membrane specimen binding to vasopressin followed by filtration with the use of a glass filter (GF/F). This glass filter was dried for about 3 hours and mixed with a cocktail for liquid scintillation (10 ml, ACSII). After allowing to stand overnight, the amount of the [^3 H]-Arg-vasopressin binding to the membrane was determined with a liquid scintillation counter and the inhibition ratio was calculated in accordance with the following formula: […]
(§2) B1; the amount of [^3 H]-Arg-vasopressin binding to the membrane in the presence of excessive vasopressin (10 μM)
(§3) C0; the amount of [^3 H]-Arg-vasopressin binding to the membrane in the absence of the test medicament and
(§4) C1; the amount of [^3 H]-Arg-vasopressin binding to the membrane in the presence of both the test medicament in a known amount and [^3 H]-Arg-vasopressin. […]

[2] = target: T2, vasopressin (V2) receptor (Rattus norvegicus, UniProt Q00788); test: V2 receptor binding assay, rat kidney membrane (Experiment F-2); conditions: [3H]-Arg-vasopressin, pH 7.4
T2 construct: rat kidney (V2); from tissue; host or cells: rat kidney membranes
Protocol: as §1, §2, §3, §4

NEP = target: T3, NEP (Rattus norvegicus, UniProt P07861); test: NEP inhibition activity using rat renal cortex (Experiment A-1); assay type: biochemical; design: membrane fraction prepared from rat renal cortex; from tissue; host or cells: rat renal cortex, membrane fraction (method of Booth and Kenny); conditions: rat renal cortex membrane fraction
T3 sequence (P07861 1-750): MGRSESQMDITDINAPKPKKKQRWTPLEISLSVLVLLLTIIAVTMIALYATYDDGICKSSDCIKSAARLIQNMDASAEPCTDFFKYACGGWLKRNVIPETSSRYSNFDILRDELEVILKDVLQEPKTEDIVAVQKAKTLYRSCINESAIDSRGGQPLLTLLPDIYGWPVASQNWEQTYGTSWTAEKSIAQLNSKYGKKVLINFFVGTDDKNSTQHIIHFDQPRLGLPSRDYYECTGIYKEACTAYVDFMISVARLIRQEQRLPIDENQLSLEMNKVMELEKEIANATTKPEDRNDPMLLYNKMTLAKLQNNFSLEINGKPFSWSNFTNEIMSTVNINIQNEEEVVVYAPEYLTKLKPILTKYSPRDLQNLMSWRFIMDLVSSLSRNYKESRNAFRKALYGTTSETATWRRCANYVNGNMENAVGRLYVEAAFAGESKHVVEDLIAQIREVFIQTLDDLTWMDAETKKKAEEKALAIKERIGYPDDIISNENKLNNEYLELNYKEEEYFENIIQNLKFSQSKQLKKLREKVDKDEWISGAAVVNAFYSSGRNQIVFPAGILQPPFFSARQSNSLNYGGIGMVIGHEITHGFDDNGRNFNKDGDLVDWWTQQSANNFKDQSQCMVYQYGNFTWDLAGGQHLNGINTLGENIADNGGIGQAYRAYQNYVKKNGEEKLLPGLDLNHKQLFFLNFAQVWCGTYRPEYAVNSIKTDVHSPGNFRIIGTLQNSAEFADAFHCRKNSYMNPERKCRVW
Protocol: The NEP activity was determined by using a membrane fraction prepared from rat renal cortex in accordance with the method of Booth and Kenny (A Rapid Metod for the Purificaton of Microvilli from Rabbit Kidney., Andrew G. Booth and A. John Kenny, Biochem j., 1974, 142, […].).
The NEP activity was determined by the following manner in accordance with the method of Orlowsky and Wilk (Purification and Specificity of a Membrane-Bound Metalloendopeptidase from Bovine Pituitaries., Marian Orlowsky and Shrwin Wilk, Biochemistry, 1981, 20, 4942-4950.).
As a substrate, benzoyl-glycyl-arginyl-arginyl-2-naphthylamide (benzoyl-Gly-Arg-Arg-2-naphthylamide (Nova Biochem, Switzerland)) was used. In the presence of an NEP enzyme preparation and excessive leucine aminopeptidase (sigma chemical Co., U.S.A.), the liberated naphthylamine was made to undergo color development with first garnet (Sigma chemical Co., U.S.A.), followed by the measurement of the absorbance at a wavelength of 540 nm.
With respect to the NEP inhibition activity, the inhibitor was added to the experimental system as described above in such a manner as to give the final concentrations of 1, 3, 10, 30, 100, 300 and 1000 nM, an inhibition curve was prepared, and then the concentration at which 50% inhibition was achieved was taken as IC50.

[3] = target: T2, vasopressin (V2) receptor; test: V2 receptor binding assay, rat kidney membrane (Experiment E-3); conditions: [3H]-Arg-vasopressin, pH 7.4
Protocol: Membrane specimens of rat liver (V1) and rat kidney (V2) were used. 100,000 counts (3.69 nM) of [^3 H]-Arg-vasopressin, 25 μg (1 mg protein/ml) of each membrane specimen and a test medicament (10^-7 to 10^-5 M) were incubated in a total volume of 250 μl of an assay buffer (pH=7.4) containing 10 mM of MgCl2, 2 mM of EGTA and 20 mM of HEPES at 4° C. over day and night. Then, the incubation was washed with 5-ml portions of the buffer 5 times to thereby separate the membrane specimen binding to vasopressin followed by filtration with the use of a glass filter (GF/F). This glass filter was dried for about 3 hours and mixed with a cocktail for liquid scintillation (10 ml, ACSII). After allowing to stand overnight, the amount of the [^3 H]-Arg-vasopressin binding to the membrane was determined with a liquid scintillation counter and the inhibition ratio was calculated in accordance with the following formula: […]
as §2, §3, §4

SHR = test: Effect by oral administration on SHR, tail cuff method (Experiment C-6); assay type: in vivo, Spontaneously hypertensive male rats
Protocol: By using Spontaneously hypertensive male rats (aged 16 to 17 weeks), the compound of Example C-8 and a comparative compound [S-(R*,R*)]-2,3,4,5-tetrahydro-3-[(2-mercapto-1-oxohexyl)amino]-2-oxo-1H-benzazepine-1-acetic acid having the following structure each dissolved in 0.5% methylcellulose were orally administered thereto. Hypotensive effects were measured by the tail cuff method and data obtained before the oral administration and 2, 4 and 8 hours after the administration were compared. […] Accordingly, the compound of Example C-8 has an activity about 10 times as high as that of the comparative compound. [drawing 35]

[4] = Blood level and bioavailability in rats (Experiment E-2); conditions: rat, blood, po
Description: Then changes in the blood level of each medicament were monitored with the lapse of time by using liquid chromatography.

T2 sequence (Q00788 whole entry): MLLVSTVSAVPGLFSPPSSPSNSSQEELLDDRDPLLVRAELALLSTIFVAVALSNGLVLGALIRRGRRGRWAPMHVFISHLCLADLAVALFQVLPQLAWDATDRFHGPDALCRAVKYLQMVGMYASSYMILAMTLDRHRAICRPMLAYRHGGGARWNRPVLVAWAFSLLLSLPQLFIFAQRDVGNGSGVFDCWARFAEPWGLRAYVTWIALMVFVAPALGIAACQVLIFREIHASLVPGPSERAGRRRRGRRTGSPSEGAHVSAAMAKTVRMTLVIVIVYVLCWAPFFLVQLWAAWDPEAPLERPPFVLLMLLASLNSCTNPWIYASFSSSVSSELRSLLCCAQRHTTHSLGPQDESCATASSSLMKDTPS
T1 sequence (P30560 whole entry): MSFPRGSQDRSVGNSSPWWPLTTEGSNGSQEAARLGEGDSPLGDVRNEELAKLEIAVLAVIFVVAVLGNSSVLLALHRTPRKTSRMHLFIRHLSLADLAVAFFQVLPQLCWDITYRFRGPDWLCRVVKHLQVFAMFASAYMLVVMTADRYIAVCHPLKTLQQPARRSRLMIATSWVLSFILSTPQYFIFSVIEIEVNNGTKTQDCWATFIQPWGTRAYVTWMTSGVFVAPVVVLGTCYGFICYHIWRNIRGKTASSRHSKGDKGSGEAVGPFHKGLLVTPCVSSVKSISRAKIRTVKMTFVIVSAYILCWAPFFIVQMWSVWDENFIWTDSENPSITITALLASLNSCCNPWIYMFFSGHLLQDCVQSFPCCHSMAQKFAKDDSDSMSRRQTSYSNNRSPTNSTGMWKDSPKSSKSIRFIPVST

IC50 [1]: ≥ 10 µM
IC50 [2]: 1390 nM
Compound: O=C(N[C@H]1CCC[C@H]2SC[C@@H](C(=O)O)N2C1=O)[C@@H](S)Cc1ccccc1 [Example F-17, [3R-[3α,6α(S*),9aβ]]-6-[[(S)-1-Oxo-2-thio-3-phenylpropyl]amino]-octahydro-5-oxothiazol[3,2-a]-azepine-3-carboxylic acid]

IC50 (NEP): 6.2 nM
Compound: CC[C@H](C)[C@H](S)C(=O)N[C@H]1CCc2ccccc2N(CC(=O)O)C1=O [Example A-11, (S)-3-[(2S,3S)-2-Mercapto-3-methylvarelylamino]-1-carboxymethyl-2,3,4,5-tetrahydro-1H-[1]benzazepin-2-one]

IC50 [3]: 4.49 µM
Compound: CC(C)[C@H](S)C(=O)N[C@H]1Cc2ccc(-c3ccccc3)cc2[C@H]2CCC[C@@H](C(=O)O)N2C1=O [Example E-10, [4S-[4α,7α(R*),12bβ]]-7-[(S)-2-Mercapto-3-methylbutyrylamino]-6-oxo-11-phenyl-1,2,3,4,6,7,8,12b-octahydropyrido[2,1-a][2]benzazepine-4-carboxylic acid]

IC50 (NEP): 13 nM
Compound: CC[C@H](C)[C@H](S)C(=O)NC1CCc2ccccc2N(CC(=O)O)C1=O (stereo partly drawn) [Example A-9, 1-Carboxymethyl-3-[(2S,3S)-2-mercapto-3-methylvarelylamino]-1H-[1]benzazepin-2-one]

Compound: CC[C@H](C)[C@H](S)C(=O)N[C@H]1CCC[C@H]2SC[C@@H](C(=O)O)N2C1=O [Example C-8, [3R-[3α,6α,(S*),9aβ]]-6-[[(2S,3S)-3-methyl-1-oxo-2-thiopentyl]amino]-octahydro-5-oxothiazol[3,2-a]-azepine-3-carboxylic acid]
hypotensive effect (tail cuff method) (SHR; 1.0 mg/kg oral, before and 2, 4 and 8 hours after): comparable to the one achieved by 10 mg/kg of the above comparative compound
activity relative to the comparative compound (SHR; oral, SHR): about 10 times

bioavailability ([4]; 10 mg/kg): 4.3%
bioavailability ([4]; 30 mg/kg): 7.8%
Compound: O=C(N[C@H]1Cc2ccccc2[C@H]2CCC[C@@H](C(=O)O)N2C1=O)[C@@H](S)Cc1ccccc1 [Comp. cpd. E-1, [4S-[4α,7α(R*),12bβ]]-7-[(1-oxo-2-(S)-thio-3-phenyl-propyl)amino]-1,2,3,4,6,7,8,12b-octahydro-6-oxopyrido-[2,1-a][2]benzazepine-4-carboxylic acid, reference compound]
